Measured values taken from patent US12460153B2, “Method for transforming an essential oil” (PRANAROM INTERNATIONAL S.A., priority 2019, dated 2025).

What was measured:
[1] = test system: Staphylococcus aureus LMG 15975; test: Individual activity: MIC by microdilution in 96-well tray; type: cell-based; settings: S. aureus LMG 15975 (MRSA+); substance alone
Text: (§1) Within the framework of this invention, the individual activity makes reference to the antimicrobial activity exerted by the EO itself. The individual activity may, for example, be evaluated simply by measuring the MIC (minimum inhibitory concentration), which is the lowest concentration sufficient to inhibit, in vitro, the growth of a bacterial strain, after treating different bacterial strains by different EOs transformed or not according to the method of the invention.
(§2) To do this, the stock solutions of EO (EO-C and EO-T) were first diluted in DMSO at the rate of 10 μl EO in 300 μl DMSO, They were agitated and stored at ambient temperature, away from the light, in glass tubes autoclaved with threaded cap. The individual activity of the EOs was measured by the microdilution method in a 96 well tray so as to obtain the MIC, value at which a solution inhibits bacterial growth. The bacterial strains treated were S. aureus LMG 15975 (methicillin-resistant Staphylococcus aureus, hereinafter referred to as MRSA÷), E. coli LMG 8223, E. coli LMG 15862, P. aeruginosa LMG 6395, S. aureus LMG 8064, S. aureus LMG 16217 (methicillin-resistant Staphylococcus aureus, hereinafter referred to as MRSA++), E. faecalis LMG 8222, K. pneumoniae LMG 20218 and E. aerogenes LMG 2094. […]

S. aureus LMG 8064 = test: Individual activity: MIC by microdilution; type: cell-based, Staphylococcus aureus; settings: MSSA LMG 8064 strain; PV alone
Text: as §1, §2

S. aureus LMG 16217 = test: Individual activity: MIC of antibiotic alone, microdilution; type: cell-based, Staphylococcus aureus; settings: S. aureus LMG 16217 (MRSA++)
Protocol: […] The individual activity may, for example, be evaluated simply by measuring the MIC (minimum inhibitory concentration), which is the lowest concentration sufficient to inhibit, in vitro, the growth of a bacterial strain, after treating different bacterial strains by different EOs transformed or not according to the method of the invention.
To do this, the stock solutions of EO (EO-C and EO-T) were first diluted in DMSO at the rate of 10 μl EO in 300 μl DMSO, They were agitated and stored at ambient temperature, away from the light, in glass tubes autoclaved with threaded cap. The individual activity of the EOs was measured by the microdilution method in a 96 well tray so as to obtain the MIC, value at which a solution inhibits bacterial growth. The bacterial strains treated were S. aureus LMG 15975 (methicillin-resistant Staphylococcus aureus, hereinafter referred to as MRSA÷), E. coli LMG 8223, E. coli LMG 15862, P. aeruginosa LMG 6395, S. aureus LMG 8064, S. aureus LMG 16217 (methicillin-resistant Staphylococcus aureus, hereinafter referred to as MRSA++), E. faecalis LMG 8222, K. pneumoniae LMG 20218 and E. aerogenes LMG 2094. Inocula of the bacterial strains were prepared by placing colonies of 18-24 hours of strains suspended in a sterile physiological solution (NaCl 0.85%). These inocula were then adjusted and diluted so as to obtain a final concentration of 5×10^5 CFU/ml. Concerning the test solutions, 300 μl of stock solutions of EO (diluted in DMSO) were added to 4.7 ml culture medium (for example to Mueller Hinton Broth), so as to obtain a solution of EO of 2 mg/ml which was then diluted in series by half in multi-well trays. The final percentage of DMSO in the wells is less than 5%. After inoculation, the multi-well trays were incubated for 18-24 hours at 37° C. and the presence of bacteria was viewed by adding methyl tetrazolium (MU).

SMILES: CC1(C)S[C@@H]2[C@H](NC(=O)COc3ccccc3)C(=O)N2[C@H]1C(=O)O [PV, penicillin V]
- Individual activity MIC: PV/EO [1]: 4 µg/mL
- MIC of PV (S. aureus LMG 8064): 0.015 µg/mL
- MIC of the antibiotic on this strain (S. aureus LMG 16217): 64 µg/mL

SMILES: CC1(C)S[C@@H]2[C@H](NC(=O)[C@H](N)c3ccc(O)cc3)C(=O)N2[C@H]1C(=O)O [amoxicillin]
- MIC of the antibiotic on this strain (S. aureus LMG 16217): 64 µg/mL

SMILES: CC1(C)S[C@@H]2[C@H](NC(=O)Cc3ccccc3)C(=O)N2[C@H]1C(=O)O [penicillin G]
- MIC of the antibiotic on this strain (S. aureus LMG 16217): 64 µg/mL
